Results on 26 compounds are retold here after patent publication US12655130B2 (ASSEMBLY BIOSCIENCES, INC., priority 2020, dated 2026).

For one assay, the system named is HBV viral load (viral production from HepAD38 cells). Put plainly: Activity of test compounds on viral production from HepAD38 cells (viral load by qPCR of HBV core sequence). Type of assay: cell-based. The note with it: Hepatitis B virus, HePAD38, 120 h, viral load lowering, 5 days, qPCR of supernatant, read-out: VL HepAD38 EC50 range. In a few lines:
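HepAD38 cells seeded at 50,000/well in tetracycline-free medium with 2% FBS, treated 5 days at 37 °C with compounds from 10 μM top concentration. Supernatant HBV DNA quantified by TaqMan qPCR of core sequence against HBV DNA standards, relative to DMSO wells; viability by CellTiter-Glo; EC50/CC50 by four-parameter logistic fit.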
A general note: Real-time PCR tracks product formation cycle by cycle.
On to `Cn1cnc(C2CC3CC(O)(c4c(F)c(OCC(C)(C)O)nn4C)CC3C2)c1C(=O)Nc1ccc(F)c(Cl)c1` (centres unmarked) [Example 212, N-(3-Chloro-4-fluorophenyl)-4-(5-(4-fluoro-3-(2-hydroxy-2-methylpropoxy)-1-methyl-1H-pyrazol-5-yl)-5-hydroxyoctahydropentalen-2-yl)-1-methyl-1H-imidazole-5-carboxamide], for which the half-maximal effective concentration (EC50) is less than 10 nM. Same read-out and setting: the result for `Cc1nc(C2CC3CC(O)(c4c(Cl)cnn4C)CC3C2)c(C(=O)Nc2ccc(F)c(Cl)c2)n1C` (centres unmarked) [Example 138, 4-(5-(4-Chloro-1-methyl-1H-pyrazol-5-yl)-5-hydroxyoctahydropentalen-2-yl)-N-(3-chloro-4-fluorophenyl)-1,2-dimethyl-1H-imidazole-5-carboxamide] reads less than 10 nM; that for `Cn1cnc(C2CC3CC(O)(c4c[nH]nc4C(F)F)CC3C2)c1C(=O)Nc1ccc(F)c(Cl)c1` (centres unmarked) [Example 170, N-(3-Chloro-4-fluorophenyl)-4-(5-(3-(difluoromethyl)-1H-pyrazol-4-yl)-5-hydroxyoctahydropentalen-2-yl)-1-methyl-1H-imidazole-5-carboxamide], less than 10 nM; that for `CCOC(=O)Oc1cc(C2(O)CC3CC(c4ncn(C)c4C(=O)Nc4ccc(F)c(Cl)c4)CC3C2)n(C)n1` (centres unmarked) [Example 222, 5-(5-(5-((3-Chloro-4-fluorophenyl)carbamoyl)-1-methyl-1H-imidazol-4-yl)-2-hydroxyoctahydropentalen-2-yl)-1-methyl-1H-pyrazol-3-yl ethyl carbonate], less than 10 nM. Same read-out and setting: the result for `CC(C)Cn1nc(OCC(C)(C)O)cc1C1(O)CC2CC(c3ncn(C)c3C(=O)Nc3ccc(F)c(Cl)c3)CC2C1` (centres unmarked) [Example 221, N-(3-Chloro-4-fluorophenyl)-4-(5-hydroxy-5-(3-(2-hydroxy-2-methylpropoxy)-1-isobutyl-1H-pyrazol-5-yl)octahydropentalen-2-yl)-1-methyl-1H-imidazole-5-carboxamide] reads less than 10 nM; that for `Cn1cnc(C2CC3CC(O)(c4c([N+](=O)[O-])cnn4C)CC3C2)c1C(=O)Nc1ccc(F)c(Cl)c1` (centres unmarked) [Example 127, N-(3-chloro-4-fluorophenyl)-4-(5-hydroxy-5-(1-methyl-4-nitro-1H-pyrazol-5-yl)octahydropentalen-2-yl)-1-methyl-1H-imidazole-5-carboxamide], 10 to 50 nM; that for `Cn1cnc(C2CC3CC(O)(c4c(F)c(OCC(O)C(F)(F)F)nn4C)CC3C2)c1C(=O)Nc1ccc(F)c(Cl)c1` (centres unmarked) [Example 62, N-(3-Chloro-4-fluorophenyl)-4-(5-(4-fluoro-1-methyl-3-(3,3,3-trifluoro-2-hydroxypropoxy)-1H-pyrazol-5-yl)-5-hydroxyoctahydropentalen-2-yl)-1-methyl-1H-imidazole-5-carboxamide], less than 10 nM.

As to `Cn1cnc(C2CC3CC(O)(c4c[nH]nc4C(F)(F)F)CC3C2)c1C(=O)Nc1ccc(F)c(Cl)c1` (centres unmarked) [Example 150, N-(3-Chloro-4-fluorophenyl)-4-(5-hydroxy-5-(3-(trifluoromethyl)-1H-pyrazol-4-yl)octahydropentalen-2-yl)-1-methyl-1H-imidazole-5-carboxamide], the concentration giving a half-maximal response (EC50) is less than 10 nM. Same read-out and setting: the value for `CC(=O)c1nn(C)cc1C1(O)CC2CC(c3ncn(C)c3C(=O)Nc3ccc(F)c(Cl)c3)CC2C1` (centres unmarked) [Example 183, 4-(5-(3-Acetyl-1-methyl-1H-pyrazol-4-yl)-5-hydroxyoctahydropentalen-2-yl)-N-(3-chloro-4-fluorophenyl)-1-methyl-1H-imidazole-5-carboxamide] was 10 to 50 nM; that for `CC(C)Cn1nc([N+](=O)[O-])cc1C1(O)CC2CC(c3ncn(C)c3C(=O)Nc3ccc(F)c(Cl)c3)CC2C1` (centres unmarked) [Example 165, N-(3-Chloro-4-fluorophenyl)-4-(5-hydroxy-5-(1-isobutyl-3-nitro-1H-pyrazol-5-yl)octahydropentalen-2-yl)-1-methyl-1H-imidazole-5-carboxamide] was less than 10 nM.

For `Cn1cnc(C2CC3CC(O)(c4cc(NCC(C)(C)O)nn4C)CC3C2)c1C(=O)Nc1ccc(F)c(Cl)c1` (centres unmarked) [Example 214, N-(3-Chloro-4-fluorophenyl)-4-(5-hydroxy-5-(3-((2-hydroxy-2-methylpropyl)amino)-1-methyl-1H-pyrazol-5-yl)octahydropentalen-2-yl)-1-methyl-1H-imidazole-5-carboxamide], the EC50 was less than 10 nM. Turning to `Cn1cnc(C2CC3CC(O)(c4cc(C(C)(C)C)nn4C)CC3C2)c1C(=O)Nc1ccc(F)c(Cl)c1` (single isomer, unassigned) [Example 74], the EC50 was less than 10 nM.

As to `Cn1cnc(C2CC3CC(O)(c4cc(OCC(O)C(F)(F)F)nn4C)CC3C2)c1C(=O)Nc1ccc(F)c(Cl)c1` (centres unmarked) [Example 207, N-(3-Chloro-4-fluorophenyl)-4-(5-hydroxy-5-(1-methyl-3-(3,3,3-trifluoro-2-hydroxypropoxy)-1H-pyrazol-5-yl)octahydropentalen-2-yl)-1-methyl-1H-imidazole-5-carboxamide], the 50% effective concentration (EC50) was less than 10 nM. Still for that read-out and setting: the value for `CNc1nc(C2CC3CC(=O)CC3C2)c(C(=O)Nc2ccc(F)c(Cl)c2)n1C` (centres unmarked) [Example 29, N-(3-Chloro-4-fluorophenyl)-1-methyl-2-(methylamino)-4-(5-oxooctahydropentalen-2-yl)-1H-imidazole-5-carboxamide] was 10 to 50 nM; that for `CC(C)n1cc(C(F)(F)F)c(C2(O)CC3CC(c4ncn(C)c4C(=O)Nc4ccc(F)c(Cl)c4)CC3C2)n1` (centres unmarked) [Example 160, N-(3-Chloro-4-fluorophenyl)-4-(5-hydroxy-5-(1-isopropyl-4-(trifluoromethyl)-1H-pyrazol-3-yl)octahydropentalen-2-yl)-1-methyl-1H-imidazole-5-carboxamide] was less than 10 nM. On the same count and under the same terms, the result for `CN1CCn2c(nc(C3CC4CC(O)CC4C3)c2C(=O)Nc2ccc(F)c(Cl)c2)C1` (centres unmarked) [Example 91, N-(3-chloro-4-fluorophenyl)-2-(5-hydroxyoctahydropentalen-2-yl)-7-methyl-5,6,7,8-tetrahydroimidazo[1,2-a]pyrazine-3-carboxamide] reads less than 10 nM; that for `Cn1cnc(C2CC3CC(O)(c4ccnn4C)CC3C2)c1C(=O)Nc1ccc(F)c(Cl)c1` (centres unmarked) [Example 10, N-(3-chloro-4-fluorophenyl)-4-(5-hydroxy-5-(1-methyl-1H-pyrazol-5-yl)octahydropentalen-2-yl)-1-methyl-1H-imidazole-5-carboxamide], less than 10 nM.

As for `COc1cc(C2(O)CC3CC(c4ncn(C)c4C(=O)Nc4ccc(F)c(Cl)c4)CC3C2)n(C)n1` (centres unmarked) [Example 93, N-(3-chloro-4-fluorophenyl)-4-(5-hydroxy-5-(3-methoxy-1-methyl-1H-pyrazol-5-yl)octahydropentalen-2-yl)-1-methyl-1H-imidazole-5-carboxamide], the EC50 is less than 10 nM. As for `Cn1cnc(C2CC3CC(O)(Cc4cc(C(F)(F)F)nn4C)CC3C2)c1C(=O)Nc1ccc(F)c(Cl)c1` (centres unmarked) [Example 155, N-(3-Chloro-4-fluorophenyl)-4-(5-hydroxy-5-((1-methyl-3-(trifluoromethyl)-1H-pyrazol-5-yl)methyl)octahydropentalen-2-yl)-1-methyl-1H-imidazole-5-carboxamide], the half-maximal effective concentration (EC50) was less than 10 nM.

Take `Cc1nc(C2CC3CC(O)(c4ccnn4C(C)C)CC3C2)c(C(=O)Nc2ccc(F)c(Cl)c2)n1C` (centres unmarked) [Example 140, N-(3-Chloro-4-fluorophenyl)-4-(5-hydroxy-5-(1-isopropyl-1H-pyrazol-5-yl)octahydropentalen-2-yl)-1,2-dimethyl-1H-imidazole-5-carboxamide]: the EC50 is less than 10 nM. As to `Cn1cnc(C2(O)CC3CC(c4ncn(C)c4C(=O)Nc4ccc(F)c(Cl)c4)CC3C2)c1` (single isomer, unassigned) [Example 4, N-(3-Chloro-4-fluorophenyl)-4-(5-hydroxy-5-(1-methyl-1H-imidazol-4-yl)octahydropentalen-2-yl)-1-methyl-1H-imidazole-5-carboxamide], the EC50 was less than 10 nM.

For `Cn1cnc(C2CC3CC(O)(c4cnn(C)c4C(F)F)CC3C2)c1C(=O)Nc1ccc(F)c(Cl)c1` (centres unmarked) [Example 147, N-(3-Chloro-4-fluorophenyl)-4-(5-(5-(difluoromethyl)-1-methyl-1H-pyrazol-4-yl)-5-hydroxyoctahydropentalen-2-yl)-1-methyl-1H-imidazole-5-carboxamide], the EC50 was less than 10 nM. On to `CC(C)c1cc(C2(O)CC3CC(c4ncn(C)c4C(=O)Nc4ccc(F)c(Cl)c4)CC3C2)n(C)n1` (centres unmarked) [Example 94, N-(3-chloro-4-fluorophenyl)-4-(5-hydroxy-5-(3-isopropyl-1-methyl-1H-pyrazol-5-yl)octahydropentalen-2-yl)-1-methyl-1H-imidazole-5-carboxamide], for which the EC50 was less than 10 nM. The same measure, in the same setting: the result for `CS(=O)(=O)CC1(O)CC2CC(c3nc4n(c3C(=O)Nc3ccc(F)c(Cl)c3)CCC4)CC2C1` (single isomer, unassigned) [Example 35, N-(3-Chloro-4-fluorophenyl)-2-(5-hydroxy-5-((methylsulfonyl)methyl)octahydropentalen-2-yl)-6,7-dihydro-5H-pyrrolo[1,2-a]imidazole-3-carboxamide] reads less than 10 nM. The same measure, in the same setting: the value for `Cn1cc(C2(O)CC3CC(c4ncn(C)c4C(=O)Nc4ccc(F)c(Cl)c4)CC3C2)c(C(C)(C)O)n1` (centres unmarked) [Example 187, N-(3-Chloro-4-fluorophenyl)-4-(5-hydroxy-5-(3-(2-hydroxypropan-2-yl)-1-methyl-1H-pyrazol-4-yl)octahydropentalen-2-yl)-1-methyl-1H-imidazole-5-carboxamide] was less than 10 nM.

Staying with this assay, now noted: viral load lowering, 5 days, qPCR of supernatant, read-out: VL HepAD38 EC50 range.
With `Cn1cnc(C2CC3CC(NC4CC4)CC3C2)c1C(=O)Nc1ccc(F)c(Cl)c1` (single isomer, unassigned) [Example 45, 5-[-5-(Cyclopropylamino)-1,2,3,3a,4,5,6,6a-octahydropentalen-2-yl]-N-(3-chloro-4-fluorophenyl)-3-methyl-4-imidazolecarboxamide], the concentration giving a half-maximal response (EC50) is 10 to 50 nM.

What is called EC50 is the concentration giving half of the maximal effect.
